From PubChem BioAssay (NCI)
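Five concentrations, 48 hours, 96-well plates. GI50: concentration for 50% inhibition of growth. The concentration for full growth arrest is given as TGI.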

Tests used:
Assay in all cases: growth of human tumour cells (NCI), 48 h
OVCAR-3 ovarian = tested on: OVCAR-3 ovarian
OVCAR-8 ovarian = tested on: OVCAR-8 ovarian
MOLT-4 leukemia = tested on: MOLT-4 leukemia
NCI/ADR-RES ovarian = tested on: NCI/ADR-RES ovarian
T-47D breast = tested on: T-47D breast
U251 CNS = tested on: U251 CNS
SN12C renal = tested on: SN12C renal
UACC-62 melanoma = tested on: UACC-62 melanoma
A549 NSCLC = tested on: A549 NSCLC
LOX IMVI melanoma = tested on: LOX IMVI melanoma
HCC-2998 colon = tested on: HCC-2998 colon
PC-3 prostate = tested on: PC-3 prostate
RPMI-8226 leukemia = tested on: RPMI-8226 leukemia
HT29 colon = tested on: HT29 colon
MALME-3M melanoma = tested on: MALME-3M melanoma
UO-31 renal = tested on: UO-31 renal
MDA-MB-231 breast = tested on: MDA-MB-231 breast
OVCAR-4 ovarian = tested on: OVCAR-4 ovarian
MCF7 breast = tested on: MCF7 breast
SK-OV-3 ovarian = tested on: SK-OV-3 ovarian
NCI-H23 lung = tested on: NCI-H23 lung
SK-MEL-5 melanoma = tested on: SK-MEL-5 melanoma
HS 578T breast = tested on: HS 578T breast
ACHN renal = tested on: ACHN renal
SNB-75 CNS = tested on: SNB-75 CNS
IGROV1 ovarian = tested on: IGROV1 ovarian
BT-549 breast = tested on: BT-549 breast
786-0 renal = tested on: 786-0 renal
NCI-H522 lung = tested on: NCI-H522 lung
NCI-H226 lung = tested on: NCI-H226 lung
HCT-116 colon = tested on: HCT-116 colon
OVCAR-5 ovarian = tested on: OVCAR-5 ovarian
DU-145 prostate = tested on: DU-145 prostate
SF-295 CNS = tested on: SF-295 CNS
NCI-H460 lung = tested on: NCI-H460 lung
MDA-MB-435 = tested on: MDA-MB-435
SK-MEL-28 melanoma = tested on: SK-MEL-28 melanoma
SNB-19 CNS = tested on: SNB-19 CNS
CAKI-1 renal = tested on: CAKI-1 renal
HL-60(TB) leukemia = tested on: HL-60(TB) leukemia
SF-268 CNS = tested on: SF-268 CNS
A498 renal = tested on: A498 renal
SF-539 CNS = tested on: SF-539 CNS
KM12 colon = tested on: KM12 colon
SR leukemia = tested on: SR leukemia
EKVX NSCLC = tested on: EKVX NSCLC
COLO 205 colon = tested on: COLO 205 colon
CCRF-CEM leukemia = tested on: CCRF-CEM leukemia
RXF 393 renal = tested on: RXF 393 renal
TK-10 renal = tested on: TK-10 renal
M14 melanoma = tested on: M14 melanoma
SW-620 colon = tested on: SW-620 colon
HOP-62 NSCLC = tested on: HOP-62 NSCLC
SK-MEL-2 melanoma = tested on: SK-MEL-2 melanoma
HCT-15 colon = tested on: HCT-15 colon
HOP-92 NSCLC = tested on: HOP-92 NSCLC
K-562 leukemia = tested on: K-562 leukemia

O=C1c2cccc3cc([N+](=O)[O-])cc(c23)C(=O)N1CCN1CCCC1
GI50 (OVCAR-3 ovarian): 1740 nM
TGI (OVCAR-3 ovarian): 5710 nM
GI50 (OVCAR-8 ovarian): 566 nM
TGI (OVCAR-8 ovarian): 4380 nM
GI50 (MOLT-4 leukemia): 237 nM
TGI (MOLT-4 leukemia): > 100000 nM
GI50 (NCI/ADR-RES ovarian): 871 nM
GI50 (T-47D breast): 302 nM
TGI (T-47D breast): 2280 nM
GI50 (U251 CNS): 315 nM
GI50 (SN12C renal): 228 nM
TGI (SN12C renal): 1110 nM
GI50 (UACC-62 melanoma): 322 nM
TGI (UACC-62 melanoma): 1710 nM
GI50 (A549 NSCLC): 242 nM
TGI (A549 NSCLC): 1690 nM
GI50 (LOX IMVI melanoma): 297 nM
TGI (LOX IMVI melanoma): 3270 nM
GI50 (HCC-2998 colon): 582 nM
TGI (HCC-2998 colon): 2740 nM
GI50 (PC-3 prostate): 1580 nM
TGI (PC-3 prostate): 12500 nM
GI50 (RPMI-8226 leukemia): 203 nM
TGI (RPMI-8226 leukemia): 1270 nM
GI50 (HT29 colon): 593 nM
TGI (HT29 colon): 7600 nM
GI50 (MALME-3M melanoma): 180 nM
TGI (MALME-3M melanoma): 1070 nM
GI50 (UO-31 renal): 281 nM
TGI (UO-31 renal): 3170 nM
GI50 (MDA-MB-231 breast): 1560 nM
TGI (MDA-MB-231 breast): 11100 nM
GI50 (OVCAR-4 ovarian): 1480 nM
TGI (OVCAR-4 ovarian): 11700 nM
GI50 (MCF7 breast): 309 nM
TGI (MCF7 breast): 3830 nM
GI50 (SK-OV-3 ovarian): 252 nM
TGI (SK-OV-3 ovarian): 1110 nM
GI50 (NCI-H23 lung): 466 nM
TGI (NCI-H23 lung): 4300 nM
GI50 (SK-MEL-5 melanoma): 293 nM
TGI (SK-MEL-5 melanoma): 943 nM
GI50 (HS 578T breast): 1080 nM
TGI (HS 578T breast): 5360 nM
GI50 (ACHN renal): 193 nM
TGI (ACHN renal): 706 nM
GI50 (SNB-75 CNS): 388 nM
TGI (SNB-75 CNS): 2270 nM
GI50 (IGROV1 ovarian): 276 nM
TGI (IGROV1 ovarian): 5160 nM
GI50 (BT-549 breast): 1560 nM
TGI (BT-549 breast): 7550 nM
GI50 (786-0 renal): 280 nM
TGI (786-0 renal): 1200 nM
GI50 (NCI-H522 lung): 495 nM
TGI (NCI-H522 lung): 2880 nM
GI50 (NCI-H226 lung): 193 nM
TGI (NCI-H226 lung): 632 nM
GI50 (HCT-116 colon): 441 nM
TGI (HCT-116 colon): > 100000 nM
GI50 (OVCAR-5 ovarian): 1780 nM
TGI (OVCAR-5 ovarian): > 19700 nM
GI50 (DU-145 prostate): 286 nM
TGI (DU-145 prostate): 1240 nM
GI50 (SF-295 CNS): 227 nM
TGI (SF-295 CNS): 734 nM
GI50 (NCI-H460 lung): 161 nM
TGI (NCI-H460 lung): 902 nM
GI50 (MDA-MB-435): 1310 nM
TGI (MDA-MB-435): 2990 nM
GI50 (SK-MEL-28 melanoma): 1300 nM
TGI (SK-MEL-28 melanoma): 2900 nM
GI50 (SNB-19 CNS): 350 nM
TGI (SNB-19 CNS): 2420 nM
GI50 (CAKI-1 renal): 216 nM
TGI (CAKI-1 renal): 892 nM
GI50 (HL-60(TB) leukemia): 404 nM
TGI (HL-60(TB) leukemia): > 100000 nM
GI50 (SF-268 CNS): 601 nM
TGI (SF-268 CNS): 4270 nM
GI50 (A498 renal): 319 nM
TGI (A498 renal): 1650 nM
GI50 (SF-539 CNS): 487 nM
TGI (SF-539 CNS): 2040 nM
GI50 (KM12 colon): 551 nM
TGI (KM12 colon): 9020 nM
GI50 (SR leukemia): 52.3 nM
GI50 (EKVX NSCLC): 1470 nM
TGI (EKVX NSCLC): 5700 nM
GI50 (COLO 205 colon): 648 nM
TGI (COLO 205 colon): 2920 nM
GI50 (CCRF-CEM leukemia): 343 nM
TGI (CCRF-CEM leukemia): 7020 nM
GI50 (RXF 393 renal): 839 nM
TGI (RXF 393 renal): 3010 nM
GI50 (TK-10 renal): 697 nM
TGI (TK-10 renal): 2520 nM
GI50 (M14 melanoma): 451 nM
TGI (M14 melanoma): 2080 nM
GI50 (SW-620 colon): 389 nM
TGI (SW-620 colon): 5190 nM
GI50 (HOP-62 NSCLC): 312 nM
TGI (HOP-62 NSCLC): 1700 nM
GI50 (SK-MEL-2 melanoma): 1880 nM
TGI (SK-MEL-2 melanoma): 4450 nM
GI50 (HCT-15 colon): 334 nM
GI50 (HOP-92 NSCLC): 355 nM
TGI (HOP-92 NSCLC): 2790 nM
GI50 (K-562 leukemia): 534 nM
